The text below walks through data of patent publication US20230150986A1, “ANTAGONISTS OF THE MUSCARINIC ACETYLCHOLINE RECEPTOR M4” (Vanderbilt University, priority 2019, published 2023).

The structures appear in SMILES notation. Where only a bound is given, the exact number is not on record here.

Common to all, as to assay type: in vitro ADME
The target of one data set is T1, cytochrome P450 1A2 (Homo sapiens, UniProt P05177).
T1 construct: human liver microsomes (HLM; 0.1 mg/mL); from tissue; host or cells: human liver microsomes
T1 sequence (P05177 1-516): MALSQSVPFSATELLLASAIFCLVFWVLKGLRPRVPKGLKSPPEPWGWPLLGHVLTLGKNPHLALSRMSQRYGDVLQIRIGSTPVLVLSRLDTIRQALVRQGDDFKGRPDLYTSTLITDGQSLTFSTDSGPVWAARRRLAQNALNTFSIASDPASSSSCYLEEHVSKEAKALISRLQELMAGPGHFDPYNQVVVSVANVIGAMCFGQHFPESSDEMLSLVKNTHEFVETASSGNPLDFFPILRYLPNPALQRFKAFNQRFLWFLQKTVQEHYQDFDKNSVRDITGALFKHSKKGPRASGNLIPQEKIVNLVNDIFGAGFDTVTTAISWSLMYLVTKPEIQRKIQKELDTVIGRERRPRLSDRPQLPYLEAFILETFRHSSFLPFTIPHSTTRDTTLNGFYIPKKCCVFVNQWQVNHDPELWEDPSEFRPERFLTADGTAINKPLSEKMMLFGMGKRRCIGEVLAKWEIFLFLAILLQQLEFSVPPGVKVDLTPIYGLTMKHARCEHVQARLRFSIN
Kind of data set: Cytochrome P450 cocktail inhibition assay, 1A2 (phenacetin). The following applies: human liver microsomes 0.1 mg/mL; read-out: CYP Inhibition (1A2). The protocol:
(§1) Solutions of substrates for cytochrome P450 enzymes (1A2: Phenacetin, 10 μM; 2C9: Diclofenac, 5 μM; 2D6: Dextromethorphan, 5 μM; 3A4: Midazolam, 2 μM; as a mixture), test compound (VU6028418; multiple concentrations), and the positive control for pan-P450 inhibition (miconazole; multiple concentrations) were prepared. A reaction mixture of assay buffer (100 mM Kpi at pH 7.4), human liver microsomes (HLM; 0.1 mg/mL), and the substrate mixture were aliquoted into a 96-deepwell plate. The test compound and control were then added to the plate such that the final concentration of test compound ranged from 0.1-30 μM (two replicates per concentration). The assay plate was vortexed (briefly) and pre-incubated at 37° C. in an orbital shaker for 15 minutes. The reaction was initiated by addition of NADPH (1 mM, final concentration) and continued for 8 min before it was quenched by acetonitrile (2× volume) containing an LCMS internal standard (carbamazepine, 50 nM). The plate was then centrifuged (4000 rcf, 4° C., 10 min), and the resulting supernatant was diluted with water (1× volume) for LC-MS/MS. Assay samples were analyzed via electrospray ionization on an AB Sciex API-4000 (Foster City, Calif.) triple-quadrupole mass spectrometer coupled to Agilent Technologies 1290 Infinity series pumps (Santa Clara, Calif.), and a Leap Technologies CTC PAL auto -sampler (Carrboro, NC). Analytes were separated by gradient elution on a Phenomenex Kinetex (C18 2.1×50 mm 5 μm) column (Torrance, Calif.) thermostated at 40° C. The HPLC mobile phase A was 0.1% formic acid in water (pH unadjusted), and the mobile phase B was 0.1% formic acid in acetonitrile (pH unadjusted). […] The total run time was 2.5 min and the HPLC flow rate was 0.5 mL/min. The source temperature was set at 500° C. and mass spectral analyses were performed using multiple reaction monitoring (MRM) with mass transitions specific to each substrate's metabolite utilizing a Turbo-Ionspray® source in positive ionization mode (5.0 kV spray voltage). The test compound and control IC50 values for each enzyme were obtained by quantitating the inhibition of metabolite formation for each substrate. A 0 μM test compound (or control) conditions represented 100% enzymatic activity, and the effect of increasing test compound concentrations on enzymatic activity was then calculated from the % of control activity. Inhibition curves were fitted using XLfit 5.2.2 (four-parameter logistic model, equation 201) in order to calculate the concentration that produced half-maximal inhibition (IC50) of each enzyme.

For a further data set, the target named is T2, cytochrome P450 2C9 (Homo sapiens, UniProt P11712).
T2 construct: human liver microsomes (HLM; 0.1 mg/mL); from tissue; host or cells: human liver microsomes
T2 sequence (P11712 whole entry): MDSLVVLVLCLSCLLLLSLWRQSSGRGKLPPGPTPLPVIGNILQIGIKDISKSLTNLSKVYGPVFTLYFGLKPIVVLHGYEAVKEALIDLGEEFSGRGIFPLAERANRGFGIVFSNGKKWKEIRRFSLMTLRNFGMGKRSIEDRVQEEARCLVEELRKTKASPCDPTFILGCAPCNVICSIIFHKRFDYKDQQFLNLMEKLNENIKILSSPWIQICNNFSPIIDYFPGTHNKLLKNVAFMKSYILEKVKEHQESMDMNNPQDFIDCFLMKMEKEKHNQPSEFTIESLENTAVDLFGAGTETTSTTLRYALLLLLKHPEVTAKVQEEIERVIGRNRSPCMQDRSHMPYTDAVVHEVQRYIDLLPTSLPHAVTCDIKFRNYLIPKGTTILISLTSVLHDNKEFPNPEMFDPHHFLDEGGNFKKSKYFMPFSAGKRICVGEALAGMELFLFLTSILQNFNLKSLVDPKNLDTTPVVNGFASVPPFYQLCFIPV
In words: Cytochrome P450 cocktail inhibition assay, 2C9 (diclofenac). The following applies: human liver microsomes 0.1 mg/mL; read-out: CYP Inhibition (2C9). The protocol:
as §1

The target in a further data set is T3, cytochrome P450 3A4 (Homo sapiens, UniProt P08684).
T3 construct: human liver microsomes (HLM; 0.1 mg/mL); from tissue; host or cells: human liver microsomes
T3 sequence (P08684 whole entry): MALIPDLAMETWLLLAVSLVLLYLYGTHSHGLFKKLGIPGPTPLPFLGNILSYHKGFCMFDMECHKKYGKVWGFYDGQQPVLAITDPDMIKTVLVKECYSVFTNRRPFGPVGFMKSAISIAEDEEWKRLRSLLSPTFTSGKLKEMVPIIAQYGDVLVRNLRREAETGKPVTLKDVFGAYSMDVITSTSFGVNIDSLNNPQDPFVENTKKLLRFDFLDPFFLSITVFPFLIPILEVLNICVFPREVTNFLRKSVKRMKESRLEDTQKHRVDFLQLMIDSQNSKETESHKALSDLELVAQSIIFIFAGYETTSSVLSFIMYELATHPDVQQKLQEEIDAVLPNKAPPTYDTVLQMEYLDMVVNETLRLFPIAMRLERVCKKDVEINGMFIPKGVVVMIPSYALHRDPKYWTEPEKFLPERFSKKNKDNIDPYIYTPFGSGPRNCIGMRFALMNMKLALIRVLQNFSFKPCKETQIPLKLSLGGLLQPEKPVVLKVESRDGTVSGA
In words: Cytochrome P450 cocktail inhibition assay, 3A4 (midazolam). The following applies: human liver microsomes 0.1 mg/mL; read-out: CYP Inhibition (3A4). The protocol: as §1

For `Fc1cc(F)c(F)c(-c2ccc(N[C@H]3C[C@@H]4CN(Cc5ccccn5)C[C@@H]4C3)nn2)c1` [Compound 2, (3aR,5s,6aS)-2-(pyridin-2-ylmethyl)-N-(6-(2,3,5-trifluorophenyl)pyridazin-3-yl)octahydrocyclopenta[c]pyrrol-5-amine], the values for the IC50 at cytochrome P450 1A2, at cytochrome P450 2C9 and on cytochrome P450 3A4 were 22.6 µM, over 30 µM and over 30 µM, respectively.

Regarding `Fc1cc(F)c(F)c(-c2ccc(N[C@H]3C[C@@H]4CN(CC5CCOCC5)C[C@@H]4C3)nn2)c1` [Compound 1, (3aR,5s,6aS)-2-((tetrahydro-2H-pyran-4-yl)methyl)-N-(6-(2,3,5-trifluorophenyl)pyridazin-3-yl)octahydrocyclopenta[c]pyrrol-5-amine], the IC50 on cytochrome P450 1A2 is over 30 µM; at cytochrome P450 2C9, 9.8 µM; at cytochrome P450 3A4 it was over 30 µM.
